Data taken from patent publication US20020114868A1, “Highly soluble and stable nutritional compositions containing calcium and magnesium” (priority 1999, published 2002).
Like-named read-outs stand apart in the source and are kept apart here. Marks after values point to notes of the source that are not given here.

Conditions: 3.4 g calcium equivalent in 8 ounces deionized water at 68° F

Structure (SMILES): CC(O)C(=O)[O-].O=C([O-])[C@H](O)[C@@H](O)[C@H](O)[C@H](O)CO.[Ca+2] [Gluconal ®, Calcium Gluconate Lactate]
- Dissolution Rates as % of Maximum Solubility (elapsed time 00:00.0 mm:ss.s): 0%
- Dissolution Rates as % of Maximum Solubility (elapsed time 00:05.4 mm:ss.s): 10%
- Dissolution Rates as % of Maximum Solubility (elapsed time 00:10.7 mm:ss.s): 20%
- Dissolution Rates as % of Maximum Solubility (elapsed time 00:16.1 mm:ss.s): 30%
- Dissolution Rates as % of Maximum Solubility (elapsed time 00:21.5 mm:ss.s): 50%
- Dissolution Rates as % of Maximum Solubility (elapsed time 00:26.9 mm:ss.s): 55%
- Dissolution Rates as % of Maximum Solubility (elapsed time 00:32.2 mm:ss.s): 45%
- Dissolution Rates as % of Maximum Solubility (elapsed time 00:37.6 mm:ss.s): 58%
- Dissolution Rates as % of Maximum Solubility (elapsed time 00:43.0 mm:ss.s): 63%
- Dissolution Rates as % of Maximum Solubility (elapsed time 00:48.4 mm:ss.s): 66%
- Dissolution Rates as % of Maximum Solubility (elapsed time 00:53.7 mm:ss.s): 71%
- Dissolution Rates as % of Maximum Solubility (elapsed time 00:59.1 mm:ss.s): 71%
- Dissolution Rates as % of Maximum Solubility (elapsed time 01:04.5 mm:ss.s): 77%
- Dissolution Rates as % of Maximum Solubility (elapsed time 01:09.9 mm:ss.s): 77%
- Dissolution Rates as % of Maximum Solubility (elapsed time 01:15.3 mm:ss.s): 80%
- Dissolution Rates as % of Maximum Solubility (elapsed time 01:20.6 mm:ss.s): 83%
- Dissolution Rates as % of Maximum Solubility (elapsed time 01:36.7 mm:ss.s): 85%
- Dissolution Rates as % of Maximum Solubility (elapsed time 01:47.5 mm:ss.s): 85%
- Dissolution Rates as % of Maximum Solubility (elapsed time 01:58.2 mm:ss.s): 86%
- Dissolution Rates as % of Maximum Solubility (elapsed time 02:09.0 mm:ss.s): 88%
- Dissolution Rates as % of Maximum Solubility (elapsed time 03:00.0 mm:ss.s): 98%
- Dissolution Rates as % of Maximum Solubility (elapsed time 03:30.5 mm:ss.s): 94%
- Dissolution Rates as % of Maximum Solubility (elapsed time 04:00.0 mm:ss.s): 99%
- Dissolution Rates as % of Maximum Solubility (elapsed time 05:00.0 mm:ss.s): 99%
- Dissolution Rates as % of Maximum Solubility (elapsed time 06:00.0 mm:ss.s): 99%
- Dissolution Rates as % of Maximum Solubility (elapsed time 07:00.0 mm:ss.s): 99%***
- Dissolution Rates as % of Maximum Solubility (elapsed time 101:26.0 mm:ss.s): 86%
